Measured values taken from US20230414510A1 (CRITITECH, INC., priority 2020, published 2023).

What was measured:
[1] = Particle size distribution (PSD) by laser diffraction, Malvern Mastersizer 3000 Aero S; assay type: physicochemical; conditions: for Mean Geometric Particle size Dv50: Table 8
Protocol: (§1) Approximately 63 precipitation runs (approximately 500 mg to 10 grams) were conducted on the RC612B precipitation unit, according to examples provided above. Variables modified between each precipitation are detailed in Tables 1-3 below. The precipitates were analyzed by laser diffraction to determine PSD, BET sorptometry to determine SSA, and SEM to determine habit and support PSD and SSA data.
PSD analyses were conducted on a Malvern Mastersizer™ 3000 using the Aero S™ dispersion unit according to manufacturer's instructions.

[2] = Specific surface area (SSA) by BET sorptometry; assay type: physicochemical; conditions: for Surface Area: Table 8
Protocol: The BET specific surface area test procedure is a compendial method included in both the United States Pharmacopeia and the European Pharmacopeia.
as §1
SSA determination analyses were conducted on a Porous Materials, Inc., Automated BET Sorptometer BET-202A according to manufacturer's instructions.

[3] = Bulk density (not tapped); assay type: physicochemical
Source text: As used herein, the bulk density (not tapped) of a particle is the ratio of the mass to the volume (including the interparticulate void volume) of an untapped powder sample.

Tapped density = assay type: physicochemical; conditions: for Bulk Tapped Density: Table 8
Source text: As used herein, the tapped density of a particle is obtained by mechanically tapping a graduated cylinder containing the sample until little further volume change is observed.

[4] = Mass median aerodynamic diameter (MMAD) of aerosol, rotating brush generator and TSI Aerodynamic Particle Sizer 3321; assay type: physicochemical; conditions: for GSD: second figure of the MMAD/GSD cell
[5] = Dissolution in 40% isopropanol 37° C., rotating paddle 50 rpm; assay type: physicochemical
Protocol: Exemplary processed products were also used for dissolution for comparison to unprocessed/raw material. Dissolution studies were carried out in 40% isopropanol 37° C. with a rotating paddle at 50 rpm.

[6] = target: T1, TMEM16A (Anoctamin-1, Ano1) (Homo sapiens, UniProt Q5XXA6); conditions: Miner et al., 2019; cited from earlier work
T1 sequence (Q5XXA6 1-986): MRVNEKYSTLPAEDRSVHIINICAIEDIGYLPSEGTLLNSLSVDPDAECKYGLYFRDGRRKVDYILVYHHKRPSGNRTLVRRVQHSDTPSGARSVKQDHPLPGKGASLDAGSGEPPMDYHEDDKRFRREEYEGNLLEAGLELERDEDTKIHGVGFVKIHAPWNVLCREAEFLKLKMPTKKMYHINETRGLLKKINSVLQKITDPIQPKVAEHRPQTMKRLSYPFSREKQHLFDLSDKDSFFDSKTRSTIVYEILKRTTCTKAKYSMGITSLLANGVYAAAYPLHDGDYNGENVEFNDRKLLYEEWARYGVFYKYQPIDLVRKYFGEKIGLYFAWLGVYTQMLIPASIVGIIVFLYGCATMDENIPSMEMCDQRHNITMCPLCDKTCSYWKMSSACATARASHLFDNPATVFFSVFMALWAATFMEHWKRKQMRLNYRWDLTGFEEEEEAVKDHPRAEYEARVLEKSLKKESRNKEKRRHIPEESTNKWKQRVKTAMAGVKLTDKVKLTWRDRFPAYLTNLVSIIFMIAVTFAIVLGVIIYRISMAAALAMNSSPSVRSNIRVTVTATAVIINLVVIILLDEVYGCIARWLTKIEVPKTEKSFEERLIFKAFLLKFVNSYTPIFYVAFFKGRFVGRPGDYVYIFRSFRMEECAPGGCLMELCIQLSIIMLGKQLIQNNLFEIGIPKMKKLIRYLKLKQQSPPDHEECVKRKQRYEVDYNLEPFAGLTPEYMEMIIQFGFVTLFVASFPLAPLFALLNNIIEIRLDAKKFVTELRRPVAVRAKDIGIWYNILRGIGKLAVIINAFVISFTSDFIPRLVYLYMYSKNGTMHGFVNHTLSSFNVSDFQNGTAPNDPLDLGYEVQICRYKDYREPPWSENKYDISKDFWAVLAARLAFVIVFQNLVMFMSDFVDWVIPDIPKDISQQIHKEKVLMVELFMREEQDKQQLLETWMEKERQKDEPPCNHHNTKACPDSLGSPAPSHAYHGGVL

[7] = intravenous; Andrews et al., 1982; Schweizer et al., 2018; cited from earlier work
[8] = listed as Milled (micronized) Niclosamide Drug Substance
[9] = volume distribution, unit not given in Tables 1-3, 6, 7

O=C(Nc1ccc([N+](=O)[O-])cc1Cl)c1cc(Cl)ccc1O [Micronized Niclosamide API, niclosamide]
Mean Geometric Particle size Dv50 [1, 8]: 2.97 microns | PSD-Mastersizer Dv-10 [1, 9]: 0.765 | PSD-Mastersizer Dv-50 [1, 9]: 2.97 | PSD-Mastersizer Dv-90 [1, 9]: 6.39 | Surface Area [2, 8]: 3.264 m2/gm | Bulk Density ([3]; Table 8, listed as Milled (micronized) Niclosamide Drug Substance): 0.49 gm/cm3 | Bulk Density ([3]; not tapped, Tables 1-3 print no unit): 0.486 | Bulk Tapped Density (Tapped density; [8]): 0.62 gm/cm3 | Tapped Density (Tapped density; Tables 1-3 print no unit): 0.619 | GSD [4, 8]: 1.74 | Dissolution in 40% isopropanol 37C 50 rpm rotating paddle ([5]; 5 min, listed as Milled (micronized) Niclosamide Drug Substance): 2.9% | Dissolution in 40% isopropanol 37C 50 rpm rotating paddle ([5]; 15 min, listed as Milled (micronized) Niclosamide Drug Substance): 4.7% | Dissolution in 40% isopropanol 37C 50 rpm rotating paddle ([5]; 30 min, listed as Milled (micronized) Niclosamide Drug Substance): 8.4% | Dissolution in 40% isopropanol 37C 50 rpm rotating paddle ([5]; 60 min, listed as Milled (micronized) Niclosamide Drug Substance): 12.7% | Dissolution in 40% isopropanol 37C 50 rpm rotating paddle ([5]; 90 min, listed as Milled (micronized) Niclosamide Drug Substance): 17.3% | Dissolution in 40% isopropanol 37C 50 rpm rotating paddle ([5]; 120 min, listed as Milled (micronized) Niclosamide Drug Substance): 23.3%

O=C(Nc1ccc([N+](=O)[O-])cc1Cl)c1cc(Cl)ccc1O [Niclosamide Drug Substance, niclosamide]
Mean Geometric Particle size Dv50 [1]: 21.1 microns | Surface Area [2]: 1.359 m2/gm | Bulk Density ([3]; Table 8): 0.45 gm/cm3 | Bulk Tapped Density (Tapped density): 0.57 gm/cm3 | MMAD ([4]; aerosol from rotating brush generator): 2.64 microns | GSD [4]: 1.82 | Dissolution in 40% isopropanol 37C 50 rpm rotating paddle ([5]; 5 min): 1.7% | Dissolution in 40% isopropanol 37C 50 rpm rotating paddle ([5]; 15 min): 3.8% | Dissolution in 40% isopropanol 37C 50 rpm rotating paddle ([5]; 30 min): 6.5% | Dissolution in 40% isopropanol 37C 50 rpm rotating paddle ([5]; 60 min): 11.2% | Dissolution in 40% isopropanol 37C 50 rpm rotating paddle ([5]; 90 min): 15% | Dissolution in 40% isopropanol 37C 50 rpm rotating paddle ([5]; 120 min): 20.6% | Inhibition of TMEM16A [6]: potent inhibitor | Toxicity when administered intravenously [7]: substantial toxicity

NCCO.O=C(Nc1ccc([N+](=O)[O-])cc1Cl)c1cc(Cl)ccc1O [Niclosamide ethanolamine, niclosamide ethanolamine]
SSA ([2]; BET, Tables 4, 5): 2.684 m^2/g
